According to patent US8779004B2, “Stable emulsion formulations” (Amgen, Inc., priority 2006, dated 2014):
Marks after values point to notes of the source that are not given here.

Assays:
Format in all cases: physicochemical
[1] = Solubility of calcimimetics in oil phases (RP-HPLC); details: oil or lipid, thermodynamic from solid
Description: The solubility measurements of the compounds were prepared by the addition of 1 g of drug substance to two milliliters of oil into a Wheaton 5 mL vial. The headspace was sparged with nitrogen, and enclosed with a West 4405/50 gray Teflon coated stopper and manually sealed by an aluminum overseal. The preparations were repeated again with the oils containing either purified egg or soy lecithin. All labeled vials were shaken at room temperature for eighteen hours on a platform shaker. After eighteen hours, the samples were diluted in mobile phase, and analyzed by the RP-HPLC method. Table 2 summarizes solubility results (expressed in mg/mL) of cinacalcet in various oil phases.

[2] = Long-term storage stability of emulsions (assay, pH, particle size); details: 5 mg/mL emulsion
Description: Calcimimetics emulsions for long-term studies were prepared at 5 mg/mL drug concentration, 5% SBO, 2% egg lecithin, 2% glycerin, 20 mM TRIS buffer at pH 9. The emulsions were packed in glass vials at 20 mL each and stored inverted in stability chambers. At each time-point, 3 vials from each chamber were pulled and analyzed for the calcimimetic concentration, pH and particle size. […] The values for pH dropped over time, with greater magnitude of drop seen at higher temperature.

[3] = Zeta-potential vs pH of cinacalcet emulsions containing sodium oleate; details: cinacalcet emulsion; for pH at which charge is zero: from linear regression line; for zeta-potential: in mV (unit assumed)
Description: Preparation of Each Emulsion: the Emulsion were Prepared Using Substantially the same method as discussed above in Example 2 under “Laboratory scale preparation.” Briefly, the aqueous phase was prepared by adding appropriate amounts of glycerin and water to an appropriate container. The glycerin and water were mixed well and maintained at elevated temperatures (60-70° C.) by immersing the container in a water batch.
The oil phase was prepared by adding appropriate oil and lecithin. The container was tared and the cinacalcet free base was added. Appropriate quantity of sodium oleate (between 0-1%) was added to this oil phase mixture. The oil/lecithin/cinacalcet mixture was mixed at an elevated temperature using sonicater probes to disperse/dissolve the lecithin, the Cinacalcet free base and the sodium oleate.
The hot oil phase was transferred to the aqueous phase at elevated temperatures and homogenized to obtain coarse emulsion. Fine emulsion was obtained using a microfluidizer.
Charge Measurement: Zeta-potential as a function of pH was determined using a Malvern Zetasizer Nano Series Model ZEN 3600 laser-scattering particle electrophoretic analyzer that measures the electrophoretic mobility and zeta potential distribution. Samples were prepared for the zeta potential titration by diluting each emulsion approximately 2500-fold in water. The pH of this mixture was noted after dilution, and then adjusted to a pH 9 using sodium hydroxide. The pH was then titrated down to pH 6 in 0.3 or 0.5 unit steps. Zeta potential measurements were taken at every step. The zeta-potential of each emulsion was plotted as a function of pH and fit to a linear regression line.

[4] = pH and particle size of crude cinacalcet emulsions with different oils and phospholipids; parameters: unit not given here; details: emulsion; STG 20%; 1% Purified Soy Lecithin; after a single autoclaving cycle

C[C@@H](NCCCc1cccc(C(F)(F)F)c1)c1cccc2ccccc12 [Cinacalcet, N-(1-(R)-(1-naphthyl)ethyl]-3-[3-(trifluoromethyl)phenyl]-1-aminopropane]
solubility at 18 h ([1]; Long Chain Triglycerides (oil phase) with egg lecithin, Long Chain Triglycerides, Egg lecithin): > 362 mg/mL | solubility at 18 h ([1]; Long Chain Triglycerides (oil phase) with soy lecithin, Long Chain Triglycerides, Soy lecithin): > 304 mg/mL | solubility at 18 h ([1]; Long Chain Triglycerides (oil phase), Long Chain Triglycerides, no lecithin): > 340 mg/mL | solubility at 18 h ([1]; Medium Chain Triglycerides (oil phase) with egg lecithin, Medium Chain Triglycerides, Egg lecithin): > 349 mg/mL | solubility at 18 h ([1]; Medium Chain Triglycerides (oil phase) with soy lecithin, Medium Chain Triglycerides, Soy lecithin): > 327 mg/mL | solubility at 18 h ([1]; Medium Chain Triglycerides (oil phase), Medium Chain Triglycerides, no lecithin): > 341 mg/mL | solubility at 18 h ([1]; Structured Triglycerides (oil phase) with egg lecithin, Structured Triglycerides, Egg lecithin): > 339 mg/mL | solubility at 18 h ([1]; Structured Triglycerides (oil phase) with soy lecithin, Structured Triglycerides, Soy lecithin): > 317 mg/mL | solubility at 18 h ([1]; Structured Triglycerides (oil phase), Structured Triglycerides, no lecithin): > 368 mg/mL | changes in particle size ([2]; 2 years at 5° C. and 25° C.): No significant changes | cinacalcet assay and impurity levels ([2]; 2 years at 5° C. and 25° C.): within specifications | cinacalcet assay and impurity levels ([2]; 9 months at 40° C.): within specifications | changes in particle size ([2]; 18 months at 40° C.): No significant changes | pH at which charge is zero ([3]; 0% Na Oleate): 8.02 | pH at which charge is zero ([3]; 0.25% Na Oleate): 7.87 | pH at which charge is zero ([3]; 0.5% Na Oleate): 7.81 | pH at which charge is zero ([3]; 1% Na Oleate): 7.54 | zeta-potential ([3]; pH 6.5, 0% Na Oleate): 32.8 | zeta-potential ([3]; pH 6.5, 0.25% Na Oleate): 36 | zeta-potential ([3]; pH 6.5, 0.5% Na Oleate): 37.4 | zeta-potential ([3]; pH 6.5, 1% Na Oleate): 24.5 | zeta-potential ([3]; pH 7.0, 0% Na Oleate): 17.8 | zeta-potential ([3]; pH 7.0, 0.25% Na Oleate): 28.1 | zeta-potential ([3]; pH 7.0, 0.5% Na Oleate): 27.8 | zeta-potential ([3]; pH 7.0, 1% Na Oleate): 23.8 | zeta-potential ([3]; pH 7.5, 0% Na Oleate): 15.3 | zeta-potential ([3]; pH 7.5, 0.25% Na Oleate): 7.24 | zeta-potential ([3]; pH 7.5, 0.5% Na Oleate): 16.2 | zeta-potential ([3]; pH 7.5, 1% Na Oleate): 4.87 | zeta-potential ([3]; pH 8.0, 0% Na Oleate): 15 | zeta-potential ([3]; pH 8.0, 0.25% Na Oleate): 2.83 | zeta-potential ([3]; pH 8.0, 0.5% Na Oleate): 0.242 | zeta-potential ([3]; pH 8.0, 1% Na Oleate): −10.7 | zeta-potential ([3]; pH 8.5, 0% Na Oleate): −16.7 | zeta-potential ([3]; pH 8.5, 0.25% Na Oleate): −10 | zeta-potential ([3]; pH 8.5, 0.5% Na Oleate): −26.8 | zeta-potential ([3]; pH 8.5, 1% Na Oleate): −30.4 | zeta-potential ([3]; pH 9.0, 0% Na Oleate): −26.5 | zeta-potential ([3]; pH 9.0, 0.25% Na Oleate): −42.5 | zeta-potential ([3]; pH 9.0, 0.5% Na Oleate): −42.1 | zeta-potential ([3]; pH 9.0, 1% Na Oleate): −52.9 | D(4, 3) [4]: 0.94^a
